From US20240024273A1, “TOPICAL ADMINISTRATION OF 2-(DIETHYLAMINO)ETHYL 2-(4-ISOBUTYLPHENYL)PROPRIONATE FOR TREATMENT OF DISEASES” (TECHFIELDS PHARMA CO., LTD., priority 2020, published 2024)

Test system: Subjects with Osteoarthritis of the Knee
Assay: Second Phase 2 study: safety (treatment-emergent adverse events)
Assay type: in vivo, human
Parameters: Serious Treatment-emergent Adverse Event: SAE Criteria: scale not given here
Text: Safety assessments will be performed at each visit and will include assessment of AEs, vital signs (blood pressure, pulse rate, and oral temperature), clinical laboratories, physical examination, skin irritation, and electrocardiograms (ECGs) as indicated in the study flow chart, Table 47.
Safety assessments will include AEs, vital signs (blood pressures, pulse rate, and oral temperature), clinical laboratories, physical examination, skin irritation, and ECGs at various time points during the study as indicated in the study flow chart.
Adverse events of interest include: local skin reactions around the treated knee(s), upper stomach pain, GI bleeding, serious cardiovascular side effects (e.g., thrombotic events, myocardial infarction, or stroke), jaundice, elevated liver function tests, and nausea.
Safety analyses will be conducted on the SAS. Safety parameters will be listed and summarized using standard descriptive statistics, as appropriate. No formal statistical analyses are planned.

[1] = 4.375 mg, BID, subject 105/07/F64, abdominal aortic aneurysm
[2] = 8.75 mg, BID, subject 279/08/M66, Transient Ischemic Attack

CCN(CC)CCOC(=O)C(C)c1ccc(CC(C)C)cc1 (stereo not drawn) [2-(diethylamino)ethyl 2-(4-isobutylphenyl)propionate]
Recovered/: Serious Treatment-emergent Adverse Event: Outcome (8.75 mg, BID, subject 279/08/M66, Transient Ischemic Attack, cell wraps: Recovered/ resolved)
Transient Ischemic Attack: Serious Treatment-emergent Adverse Event (8.75 mg, BID, subject 279/08/M66, [Thrombosis] (Vascular Disorders))
1.4%: Abdominal Pain Upper: percentage of subjects with adverse events (4.375 mg/knee, BID, N = 71) | Administration Site Conditions: percentage of subjects with adverse events (4.375 mg/knee, BID, N = 71) | Alanine Aminotransferase Increased: percentage of subjects with adverse events (4.375 mg/knee, BID, N = 71) | Application Site Irritation: percentage of subjects with adverse events (4.375 mg/knee, BID, N = 71) | Blood Alkaline Phosphatase Increased: percentage of subjects with adverse events (4.375 mg/knee, BID, N = 71) | Blood Bilirubin Increased: percentage of subjects with adverse events (4.375 mg/knee, BID, N = 71) | Ear and Labyrinth Disorders: percentage of subjects with adverse events (4.375 mg/knee, BID, N = 71) | Hypercholesterolaemia: percentage of subjects with adverse events (4.375 mg/knee, BID, N = 71) | Hypertension: percentage of subjects with adverse events (4.375 mg/knee, BID, N = 71) | Rash: percentage of subjects with adverse events (4.375 mg/knee, BID, N = 71) | Skin Irritation: percentage of subjects with adverse events (4.375 mg/knee, BID, N = 71) | Transaminases Increased: percentage of subjects with adverse events (4.375 mg/knee, BID, N = 71) | Vascular Disorders: percentage of subjects with adverse events (4.375 mg/knee, BID, N = 71)
24: Infections and Infestations: number of adverse events (4.375 mg/knee, BID, N = 71)
15.5%: Investigations: percentage of subjects with adverse events (4.375 mg/knee, BID, N = 71)
1: Serious Treatment-emergent Adverse Event: SAE Criteria [1] | Abdominal Pain Upper: number of adverse events (4.375 mg/knee, BID, N = 71) | Abdominal Pain Upper: subjects with adverse events (4.375 mg/knee, BID, N = 71) | Administration Site Conditions: number of adverse events (4.375 mg/knee, BID, N = 71) | Administration Site Conditions: subjects with adverse events (4.375 mg/knee, BID, N = 71) | Alanine Aminotransferase Increased: number of adverse events (4.375 mg/knee, BID, N = 71) | Alanine Aminotransferase Increased: subjects with adverse events (4.375 mg/knee, BID, N = 71) | Application Site Irritation: number of adverse events (4.375 mg/knee, BID, N = 71) | Application Site Irritation: subjects with adverse events (4.375 mg/knee, BID, N = 71) | Blood Alkaline Phosphatase Increased: number of adverse events (4.375 mg/knee, BID, N = 71) | Blood Alkaline Phosphatase Increased: subjects with adverse events (4.375 mg/knee, BID, N = 71) | Blood Bilirubin Increased: number of adverse events (4.375 mg/knee, BID, N = 71) | Blood Bilirubin Increased: subjects with adverse events (4.375 mg/knee, BID, N = 71) | Cough: number of adverse events (4.375 mg/knee, BID, N = 71) | Ear and Labyrinth Disorders: number of adverse events (4.375 mg/knee, BID, N = 71) | Ear and Labyrinth Disorders: subjects with adverse events (4.375 mg/knee, BID, N = 71) | Fall: number of adverse events (4.375 mg/knee, BID, N = 71) | Headache: number of adverse events (4.375 mg/knee, BID, N = 71) | Hypercholesterolaemia: number of adverse events (4.375 mg/knee, BID, N = 71) | Hypercholesterolaemia: subjects with adverse events (4.375 mg/knee, BID, N = 71) | Hypertension: number of adverse events (4.375 mg/knee, BID, N = 71) | Hypertension: subjects with adverse events (4.375 mg/knee, BID, N = 71) | Nervous System Disorders: number of adverse events (4.375 mg/knee, BID, N = 71) | Rash: number of adverse events (4.375 mg/knee, BID, N = 71) | Rash: subjects with adverse events (4.375 mg/knee, BID, N = 71) | Rhinorrhoea: number of adverse events (4.375 mg/knee, BID, N = 71) | Skin Irritation: number of adverse events (4.375 mg/knee, BID, N = 71) | Skin Irritation: subjects with adverse events (4.375 mg/knee, BID, N = 71) | Transaminases Increased: number of adverse events (4.375 mg/knee, BID, N = 71) | Transaminases Increased: subjects with adverse events (4.375 mg/knee, BID, N = 71) | Vascular Disorders: number of adverse events (4.375 mg/knee, BID, N = 71) | Vascular Disorders: subjects with adverse events (4.375 mg/knee, BID, N = 71)
Possible: Serious Treatment-emergent Adverse Event: Relationship to Study Drug (8.75 mg, BID, subject 279/08/M66, Transient Ischemic Attack, cell wraps: Possible / unrelated)
11: Investigations: number of adverse events (4.375 mg/knee, BID, N = 71) | Investigations: subjects with adverse events (4.375 mg/knee, BID, N = 71)
Unrelated: Serious Treatment-emergent Adverse Event: Relationship to Study Drug [1]
12: Upper Respiratory Tract Infection: number of adverse events (4.375 mg/knee, BID, N = 71)
28.6%: infections and infestations incidence rate (8.75 mg/knee (BID))
14.3%: GI disorders incidence rate (8.75 mg/knee (BID))
1(%)[1]: Back Pain: number of adverse events (4.375 mg/knee, BID, N = 71) | Back Pain: subjects with adverse events, number (percentage) (4.375 mg/knee, BID, N = 71) | Ear Pain: number of adverse events (4.375 mg/knee, BID, N = 71) | Ear Pain: subjects with adverse events (4.375 mg/knee, BID, N = 71) | Musculoskeletal Pain: number of adverse events (4.375 mg/knee, BID, N = 71) | Musculoskeletal Pain: subjects with adverse events, number (percentage) (4.375 mg/knee, BID, N = 71) | Neck Pain: number of adverse events (4.375 mg/knee, BID, N = 71) | Neck Pain: subjects with adverse events, number (percentage) (4.375 mg/knee, BID, N = 71)
4: Abdominal Discomfort: number of adverse events (8.75 mg/knee, BID, N = 70)
< 11 days: Serious Treatment-emergent Adverse Event: Duration [2]
32.4%: infections and infestations incidence rate (4.375 mg/knee BID)
6(8.5%): Respiratory, Thoracic and Mediastinal Disorders: subjects with adverse events, number (percentage) (4.375 mg/knee, BID, N = 71)
8(11.3%): Urinary Tract Infection: subjects with adverse events, number (percentage) (4.375 mg/knee, BID, N = 71)
7: Metabolism and Nutrition Disorders: number of adverse events (4.375 mg/knee, BID, N = 71)
5: Hypertriglyceridemia: subjects with adverse events (4.375 mg/knee, BID, N = 71) | Subjects with Positive Fecal Occult Blood Test (4.375 mg/knee, BID, N = 71)
Severe: Serious Treatment-emergent Adverse Event: Severity [1] | Serious Treatment-emergent Adverse Event: Severity [2]
8: Urinary Tract Infection: number of adverse events (4.375 mg/knee, BID, N = 71)
2.8%: Gamma-Glutamyltransferase Increased: percentage of subjects with adverse events (4.375 mg/knee, BID, N = 71) | Skin and Subcutaneous Tissue Disorders: percentage of subjects with adverse events (4.375 mg/knee, BID, N = 71) | Toothache: percentage of subjects with adverse events (4.375 mg/knee, BID, N = 71) | White Blood Cell Count Decreased: percentage of subjects with adverse events (4.375 mg/knee, BID, N = 71)
41.4%: incidence rate of AEs possibly, probably, or definitely related to study drug (8.75 mg/knee (BID))
33.8%: incidence rate of AEs possibly, probably, or definitely related to study drug (4.375 mg/knee BID)
6: Frequency of Positive Fecal Occult Blood Test (4.375 mg/knee, BID, N = 71) | Hypertriglyceridemia: number of adverse events (4.375 mg/knee, BID, N = 71) | Metabolism and Nutrition Disorders: subjects with adverse events (4.375 mg/knee, BID, N = 71) | Respiratory, Thoracic and Mediastinal Disorders: number of adverse events (4.375 mg/knee, BID, N = 71) | Serious Treatment-emergent Adverse Event: SAE Criteria [2]
Death: Serious Treatment-emergent Adverse Event: Outcome (4.375 mg, BID, subject 105/07/F64, abdominal aortic aneurysm, cell wraps: Results / in / Death)
abdominal aortic aneurysm: Serious Treatment-emergent Adverse Event (4.375 mg, BID, subject 105/07/F64, [aortic aneurysm] (Blood and Lymphatic System Disorders))
7.0%: positive fecal occult blood test incidence rate (4.375 mg/knee BID) | Hypertriglyceridemia: percentage of subjects with adverse events (4.375 mg/knee, BID, N = 71) | Subjects with Positive Fecal Occult Blood Test, percentage (4.375 mg/knee, BID, N = 71)
2(1.4%): Oropharyngeal Pain: subjects with adverse events, number (percentage) (4.375 mg/knee, BID, N = 71)
7.1%: positive fecal occult blood test incidence rate (8.75 mg/knee (BID))
2(2.8%): Contusion: subjects with adverse events, number (percentage) (4.375 mg/knee, BID, N = 71) | Throat Irritation: subjects with adverse events, number (percentage) (4.375 mg/knee, BID, N = 71)
8.5%: Metabolism and Nutrition Disorders: percentage of subjects with adverse events (4.375 mg/knee, BID, N = 71)
1(1.4%): Cough: subjects with adverse events, number (percentage) (4.375 mg/knee, BID, N = 71) | Fall: subjects with adverse events, number (percentage) (4.375 mg/knee, BID, N = 71) | Headache: subjects with adverse events, number (percentage) (4.375 mg/knee, BID, N = 71) | Nervous System Disorders: subjects with adverse events, number (percentage) (4.375 mg/knee, BID, N = 71) | Rhinorrhoea: subjects with adverse events, number (percentage) (4.375 mg/knee, BID, N = 71)
2: Contusion: number of adverse events (4.375 mg/knee, BID, N = 71) | Gamma-Glutamyltransferase Increased: number of adverse events (4.375 mg/knee, BID, N = 71) | Gamma-Glutamyltransferase Increased: subjects with adverse events (4.375 mg/knee, BID, N = 71) | Oropharyngeal Pain: number of adverse events (4.375 mg/knee, BID, N = 71) | Skin and Subcutaneous Tissue Disorders: number of adverse events (4.375 mg/knee, BID, N = 71) | Skin and Subcutaneous Tissue Disorders: subjects with adverse events (4.375 mg/knee, BID, N = 71) | Throat Irritation: number of adverse events (4.375 mg/knee, BID, N = 71) | Toothache: number of adverse events (4.375 mg/knee, BID, N = 71) | Toothache: subjects with adverse events (4.375 mg/knee, BID, N = 71) | White Blood Cell Count Decreased: number of adverse events (4.375 mg/knee, BID, N = 71) | White Blood Cell Count Decreased: subjects with adverse events (4.375 mg/knee, BID, N = 71)
23(32.4%): Infections and Infestations: subjects with adverse events, number (percentage) (4.375 mg/knee, BID, N = 71)
3: Aspartate Aminotransferase Increased: number of adverse events (4.375 mg/knee, BID, N = 71) | Aspartate Aminotransferase Increased: subjects with adverse events (4.375 mg/knee, BID, N = 71) | Gastrointestinal Disorders: number of adverse events (4.375 mg/knee, BID, N = 71) | Gastrointestinal Disorders: subjects with adverse events (4.375 mg/knee, BID, N = 71) | Influenza: number of adverse events (4.375 mg/knee, BID, N = 71) | Injury, Poisoning and Procedural Complications: number of adverse events (4.375 mg/knee, BID, N = 71) | Musculoskeletal and Connective Tissue Disorders, Overall Total: number of adverse events (4.375 mg/knee, BID, N = 71)
4.2%: GI disorders incidence rate (4.375 mg/knee BID) | Aspartate Aminotransferase Increased: percentage of subjects with adverse events (4.375 mg/knee, BID, N = 71) | Gastrointestinal Disorders: percentage of subjects with adverse events (4.375 mg/knee, BID, N = 71)
